# In article PMC4955774 (Bioorganic & medicinal chemistry, 2016):
# Marks after values point to notes of the source that are not given here.
# Assays:
# [1] = test system: C. albicans ATCC 64124 (strain B); experiment: Antifungal time-kill studies; type: cell-based, Candida albicans
# [2] = test system: 13 fungal strains (yeast and filamentous fungi); experiment: In vitro antifungal MIC assay, summary over the whole panel; type: cell-based, Candida and Aspergillus strains; conditions: summary statement over the 13 strains
# C. albicans ATCC 10231 [3] = experiment: In vitro antifungal MIC assay, strain A; type: cell-based; conditions: Candida albicans, ATCC10231, read-out: MIC (MIC-0)
# [4] = test system: C. albicans ATCC MYA-2876(S); experiment: In vitro antifungal MIC assay, strain C; type: cell-based; conditions: Candida albicans, read-out: MIC (MIC-0)
# [5] = test system: C. albicans ATCC MYA-2310(S); experiment: In vitro antifungal MIC assay, strain E; type: cell-based; conditions: Candida albicans, read-out: MIC (MIC-0)
# [6] = test system: C. albicans ATCC MYA-1237(R); experiment: In vitro antifungal MIC assay, strain F; type: cell-based; conditions: Candida albicans, read-out: MIC (MIC-0)
# [7] = test system: C. albicans ATCC MYA-1003(R); experiment: In vitro antifungal MIC assay, strain G; type: cell-based; conditions: Candida albicans, read-out: MIC (MIC-0)
# [8] = In vitro cytotoxicity assay, A549; type: cell-based, mammalian; conditions: human
# [9] = In vitro cytotoxicity assay, BEAS-2B; type: cell-based, mammalian; conditions: human
# [10] = test system: C. albicans ATCC 10231 (strain A); experiment: ROS assay with DCFH-DA dye; type: cell-based, Candida albicans; conditions: 1 h at 35 °C
# C. albicans ATCC 10231 [11] = conditions: strain A; MIC-2 for azoles; previously reported; cited from earlier work
# C. albicans ATCC 64124 = conditions: strain B; MIC-2 for azoles; previously reported; cited from earlier work
# [12] = test system: C. albicans ATCC MYA-2876(S); conditions: strain C; MIC-2 for azoles; previously reported; cited from earlier work
# [13] = test system: C. albicans ATCC 90819(R); conditions: strain D; MIC-2 for azoles; previously reported; cited from earlier work
# [14] = test system: C. albicans ATCC MYA-2310(S); conditions: strain E; MIC-2 for azoles; previously reported; cited from earlier work
# [15] = test system: C. albicans ATCC MYA-1237(R); conditions: strain F; MIC-2 for azoles; previously reported; cited from earlier work
# [16] = test system: C. albicans ATCC MYA-1003(R); conditions: strain G; MIC-2 for azoles; previously reported; cited from earlier work
# [17] = test system: Aspergillus nidulans ATCC 38163; conditions: strain L, filamentous fungus, previously reported; cited from earlier work
# [18] = 1× and 2× respective MIC values
structure (smiles),measurement,setting,value
"C[C@@H]1[C@H](O)[C@@H](C)/C=C/C=C/C=C/C=C/C=C/C=C/C=C/[C@H](O[C@@H]2O[C@H](C)[C@@H](O)[C@H](N)[C@@H]2O)C[C@@H]2O[C@](O)(C[C@@H](O)C[C@@H](O)[C@H](O)CC[C@@H](O)C[C@@H](O)CC(=O)O[C@H]1C)C[C@H](O)[C@H]2C(=O)O [AmB, amphotericin B]",Nature of activity in time-kill assay,[1]; 1× MIC,fungicidal
same,Time after which fungal cells were completely killed,[1]; 1× MIC,9 h
C#CCOc1ccc(-c2nc3ccc(N4CCN(C)CC4)cc3[nH]2)cc1 [Compound 1],MIC / antifungal activity over all tested fungal strains,[2],≥ 31.2 µg/mL
CN1CCN(c2ccc3[nH]c(-c4ccc5[nH]c(-c6ccc(O)cc6)nc5c4)nc3c2)CC1 [Compound 2],MIC,C. albicans ATCC 10231 [3],7.8 to 15.6 µg/mL
same,MIC,[4],7.8 to 15.6 µg/mL
same,MIC,[5],3.9 to 7.8 µg/mL
same,MIC,[6],3.9 to 7.8 µg/mL
same,MIC,[7],7.8 to 15.6 µg/mL
same,Nature of activity in time-kill assay,[1]; 1× MIC,fungistatic
same,Nature of activity in time-kill assay,[1]; 2× MIC,fungicidal
same,IC50 at 24 h,[8],≥ 31.2 µg/mL
same,IC50 at 24 h,[9],≥ 31.2 µg/mL
same,Intracellular ROS production,[10]; [18],significant amount of ROS production
CCCCCCCCCCCCN1CCN(c2ccc3nc(-c4ccc5nc(-c6ccc(O)cc6)[nH]c5c4)[nH]c3c2)CC1 [Compound 4],MIC / antifungal activity over all tested fungal strains,[2],no activity
same,Intracellular ROS production,[10]; 8 and 16 µg/mL,no ROS accumulation
CCOc1ccc(-c2nc3cc(-c4nc5cc(N6CCN(C)CC6)ccc5[nH]4)ccc3[nH]2)cc1 [Compound 9],Nature of activity in time-kill assay,[1]; 1× MIC,fungistatic
same,Nature of activity in time-kill assay,[1]; 2× MIC,fungicidal
same,Intracellular ROS production,[10]; [18],significant amount of ROS production
CCCN1CCN(c2ccc3nc(-c4ccc5nc(-c6ccc(OCC)cc6)[nH]c5c4)[nH]c3c2)CC1 [Compound 11],MIC / antifungal activity over all tested fungal strains,[2],inactive
CCCCCN1CCN(c2ccc3nc(-c4ccc5nc(-c6ccc(OCC)cc6)[nH]c5c4)[nH]c3c2)CC1 [Compound 12],MIC / antifungal activity over all tested fungal strains,[2],inactive
CCCCCCCCCCCCOc1ccc(-c2nc3ccc(-c4nc5ccc(N6CCN(C)CC6)cc5[nH]4)cc3[nH]2)cc1 [Compound 13],MIC / antifungal activity over all tested fungal strains,[2],complete loss of antifungal activity
C#CCOc1ccc(-c2nc3ccc(-c4nc5ccc(N6CCN(C)CC6)cc5[nH]4)cc3[nH]2)cc1 [Compound 14],MIC,C. albicans ATCC 10231 [3],7.8 to 31.2 µg/mL
C#CCOc1ccc(-c2nc3ccc(-c4nc5ccc(-c6nc7ccc(N8CCN(C)CC8)cc7[nH]6)cc5[nH]4)cc3[nH]2)cc1 [Compound 18],MIC / antifungal activity over all tested fungal strains,[2],≥ 31.2 µg/mL
"OC(Cn1cncn1)(Cn1cncn1)c1ccc(F)cc1F [FLC, fluconazole]",MIC (MIC-2),C. albicans ATCC 10231 [11],62.5 ^a µg/mL
same,MIC (MIC-2),C. albicans ATCC 64124,>125 ^a µg/mL
same,MIC (MIC-2),[12],15.6 ^a µg/mL
same,MIC (MIC-2),[13],>125 ^a µg/mL
same,MIC (MIC-2),[14],>125 ^a µg/mL
same,MIC (MIC-2),[15],62.5 ^a µg/mL
same,MIC (MIC-2),[16],62.5 ^a µg/mL
same,MIC (MIC-0),[17],62.5 ^a µg/mL
"CCC(C)n1ncn(-c2ccc(N3CCN(c4ccc(OCC5COC(Cn6cncn6)(c6ccc(Cl)cc6Cl)O5)cc4)CC3)cc2)c1=O (centres unmarked) [ITC, itraconazole]",MIC (MIC-2),C. albicans ATCC 10231 [11],0.5 ^a µg/mL
same,MIC (MIC-2),C. albicans ATCC 64124,>62.5 ^a µg/mL
same,MIC (MIC-2),[12],7.8 ^a µg/mL
same,MIC (MIC-2),[13],31.2 ^a µg/mL
same,MIC (MIC-2),[14],31.2 ^a µg/mL
same,MIC (MIC-2),[15],31.2 ^a µg/mL
same,MIC (MIC-2),[16],31.2 ^a µg/mL
same,MIC (MIC-0),[17],0.195 ^a µg/mL
"CC[C@@H]([C@H](C)O)n1ncn(-c2ccc(N3CCN(c4ccc(OC[C@@H]5CO[C@@](Cn6cncn6)(c6ccc(F)cc6F)C5)cc4)CC3)cc2)c1=O [POS, posaconazole]",MIC (MIC-2),C. albicans ATCC 10231 [11],0.5 ^a µg/mL
same,MIC (MIC-2),C. albicans ATCC 64124,>62.5 ^a µg/mL
same,MIC (MIC-2),[12],7.8 ^a µg/mL
same,MIC (MIC-2),[13],31.2 ^a µg/mL
same,MIC (MIC-2),[14],31.2 ^a µg/mL
same,MIC (MIC-2),[15],15.6 ^a µg/mL
same,MIC (MIC-2),[16],15.6 ^a µg/mL
same,MIC (MIC-0),[17],0.195 ^a µg/mL
